Test results taken from paper PMC3189207, “DomPep—A General Method for Predicting Modular Domain-Mediated Protein-Protein Interactions” (PLoS ONE, 2011).
Like-named read-outs stand apart in the source and are kept apart here. Residues, ends and D or L forms follow the SMILES beside them.

Tests used:
Scrib PDZ-1 domain = molecular target: T1, Scrib PDZ-1 domain (Homo sapiens, UniProt Q14160); assay: In-solution fluorescence polarization binding of peptides to Scrib PDZ1
T1 construct: ROC curves of DomPep prediction for the three Scrib PDZ-1/2/3 domains

Scrib PDZ-2 domain = molecular target: T2, Scrib PDZ-2 domain (Homo sapiens, UniProt Q14160); assay: In-solution fluorescence polarization binding of peptides to Scrib PDZ2
T2 construct: ROC curves of DomPep prediction for the three Scrib PDZ-1/2/3 domains
T2 sequence (Q14160 862-950 limits assumed): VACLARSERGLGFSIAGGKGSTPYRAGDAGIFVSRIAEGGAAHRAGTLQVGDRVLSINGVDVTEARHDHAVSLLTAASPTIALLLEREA

[1] = Kd value of 100 µM applied as binding cutoff, NB without definition, read-out: Kd (µM) PDZ1
[2] = Kd value of 100 µM applied as binding cutoff, NB without definition, read-out: Kd (µM) PDZ2

T1 sequence (Q14160 728-815 limits assumed): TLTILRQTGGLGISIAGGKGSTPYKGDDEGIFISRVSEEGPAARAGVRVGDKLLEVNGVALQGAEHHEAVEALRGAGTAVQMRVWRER

Structure (SMILES): CC(C)C[C@H](NC(=O)[C@@H](N)C(C)C)C(=O)N[C@@H](Cc1ccc(O)cc1)C(=O)N1CCC[C@H]1C(=O)N[C@@H](CCCNC(=N)N)C(=O)N[C@@H](CCC(=O)O)C(=O)NCC(=O)N[C@H](C(=O)N[C@@H](CCC(=O)O)C(=O)N[C@H](C(=O)O)C(C)C)[C@@H](C)O [FOXl1] (H-VLYPREGTEV-OH)
- Kd (Scrib PDZ-1 domain; [1]): > 100 µM
- Kd (Scrib PDZ-2 domain; [2]): 24.7 µM

Structure (SMILES): CSCC[C@H](NC(=O)[C@H](CC(C)C)NC(=O)[C@@H](NC(=O)[C@H](C)NC(=O)[C@H](CCSC)NC(=O)[C@H](CCCCN)NC(=O)[C@H](CC(N)=O)NC(=O)[C@@H]1CCCN1C(=O)[C@H](CC(N)=O)NC(=O)[C@@H](N)CC(C)C)[C@@H](C)O)C(=O)O [GLO1] (H-LNPNKMATLM-OH)
- Kd (Scrib PDZ-1 domain; read-out: Kd (µM) PDZ1, Kd value of 100 µM applied as binding cutoff, NB without definition): > 100 µM
- Kd (Scrib PDZ-2 domain; read-out: Kd (µM) PDZ2, Kd value of 100 µM applied as binding cutoff, NB without definition): > 100 µM

Structure (SMILES): CSCC[C@H](NC(=O)[C@H](CCCNC(=N)N)NC(=O)[C@H](CCCCN)NC(=O)[C@H](CCC(=O)O)NC(=O)[C@H](C)NC(=O)[C@@H](N)Cc1ccc(O)cc1)C(=O)N[C@@H](CC(C)C)C(=O)N[C@H](C(=O)N[C@@H](CCC(=O)O)C(=O)N[C@H](C(=O)O)C(C)C)[C@@H](C)O [KCNA6] (H-YAEKRMLTEV-OH)
- Kd (Scrib PDZ-1 domain; [1]): > 100 µM
- Kd (Scrib PDZ-2 domain; [2]): > 100 µM

Structure (SMILES): CC[C@H](C)[C@H](NC(=O)[C@H](CCCNC(=N)N)NC(=O)[C@@H](NC(=O)[C@H](CO)NC(=O)[C@H](CC(C)C)NC(=O)[C@H](C)NC(=O)[C@@H](N)CO)C(C)C)C(=O)N[C@@H](CO)C(=O)N[C@@H](CC(N)=O)C(=O)N[C@H](C(=O)O)C(C)C [KCNJ10] (H-SALSVRISNV-OH)
- Kd (Scrib PDZ-1 domain; [1]): > 100 µM
- Kd (Scrib PDZ-2 domain; [2]): > 100 µM

Structure (SMILES): CC(C)C[C@H](NC(=O)[C@H](CCCNC(=N)N)NC(=O)[C@@H]1CCCN1C(=O)[C@H](Cc1c[nH]cn1)NC(=O)[C@H](CO)NC(=O)[C@@H]1CCCN1)C(=O)N[C@@H](CCC(N)=O)C(=O)N[C@H](C(=O)N[C@@H](Cc1c[nH]cn1)C(=O)N[C@H](C(=O)O)C(C)C)[C@@H](C)O [KIRREL2] (H-PSHPRLQTHV-OH)
- Kd (Scrib PDZ-1 domain; [1]): > 100 µM
- Kd (Scrib PDZ-2 domain; [2]): > 100 µM

Structure (SMILES): CC(C)C[C@H](NC(=O)[C@H](CC(=O)O)NC(=O)[C@@H](NC(=O)[C@H](CO)NC(=O)[C@H](C)NC(=O)[C@H](CCCCN)NC(=O)[C@H](C)NC(=O)[C@@H](NC(=O)[C@H](CC(C)C)NC(=O)[C@@H](N)C(C)C)[C@@H](C)O)[C@@H](C)O)C(=O)O [LPP] (H-VLTAKASTDL-OH)
- Kd (Scrib PDZ-1 domain; [1]): 24.2 µM
- Kd (Scrib PDZ-2 domain; [2]): > 100 µM

Structure (SMILES): CC(C)C[C@H](NC(=O)[C@@H]1CCCN1C(=O)[C@@H](NC(=O)[C@H](CCC(=O)O)NC(=O)[C@H](CCCCN)NC(=O)[C@H](CO)NC(=O)[C@@H](NC(=O)[C@H](CCCNC(=N)N)NC(=O)[C@H](C)NC(=O)CN)C(C)C)[C@@H](C)O)C(=O)O [MAPK12] (H-GARVSKETPL-OH)
- Kd (Scrib PDZ-1 domain; [1]): 20.3 µM
- Kd (Scrib PDZ-2 domain; [2]): 56.1 µM

Structure (SMILES): CC[C@H](C)[C@H](NC(=O)[C@H](CCCNC(=N)N)NC(=O)[C@@H](NC(=O)[C@H](CCCNC(=N)N)NC(=O)[C@H](CO)NC(=O)[C@H](C)NC(=O)[C@@H](N)CC(N)=O)[C@@H](C)O)C(=O)N[C@H](C(=O)N[C@@H](Cc1ccccc1)C(=O)N[C@H](C(=O)O)C(C)C)[C@@H](C)O [MCM7] (H-NASRTRITFV-OH)
- Kd (Scrib PDZ-1 domain; [1]): > 100 µM
- Kd (Scrib PDZ-2 domain; [2]): > 100 µM

Structure (SMILES): CC[C@H](C)[C@H](NC(=O)[C@@H]1CCCN1C(=O)[C@H](Cc1c[nH]cn1)NC(=O)[C@@H](NC(=O)[C@@H](N)Cc1ccccc1)C(C)C)C(=O)N[C@@H](CC(C)C)C(=O)N[C@@H](CCC(N)=O)C(=O)N[C@@H](CO)C(=O)N[C@@H](C)C(=O)N[C@H](C(=O)O)C(C)C [PRKCA] (H-FVHPILQSAV-OH)
- Kd (Scrib PDZ-1 domain; [1]): 17.4 µM
- Kd (Scrib PDZ-2 domain; [2]): 46 µM

Structure (SMILES): CC(C)[C@H](NC(=O)[C@H](CO)NC(=O)[C@@H](NC(=O)[C@@H](NC(=O)[C@@H](NC(=O)[C@H](CCCNC(=N)N)NC(=O)[C@@H](NC(=O)[C@H](CCCCN)NC(=O)[C@H](C)NC(=O)[C@@H](N)CO)C(C)C)[C@@H](C)O)C(C)C)[C@@H](C)O)C(=O)O [RASL11B] (H-SAKVRTVTSV-OH)
- Kd (Scrib PDZ-1 domain; [1]): > 100 µM
- Kd (Scrib PDZ-2 domain; [2]): > 100 µM

Structure (SMILES): CC(C)C[C@H](NC(=O)[C@@H](NC(=O)[C@@H](NC(=O)[C@H](CO)NC(=O)[C@@H]1CCCN1C(=O)[C@H](CC(C)C)NC(=O)[C@H](CCCCN)NC(=O)[C@H](CCCNC(=N)N)NC(=O)[C@@H](NC(=O)[C@@H](N)CCCNC(=N)N)C(C)C)[C@@H](C)O)[C@@H](C)O)C(=O)O [RPS6KA1] (H-RVRKLPSTTL-OH)
- Kd (Scrib PDZ-1 domain; [1]): > 100 µM
- Kd (Scrib PDZ-2 domain; [2]): > 100 µM

Structure (SMILES): CSCC[C@H](NC(=O)CN)C(=O)N[C@@H](CCCCN)C(=O)N[C@@H](CCCNC(=N)N)C(=O)N[C@@H](CC(C)C)C(=O)N[C@H](C(=O)N[C@@H](CO)C(=O)N[C@H](C(=O)N[C@@H](CCCNC(=N)N)C(=O)N[C@@H](CC(C)C)C(=O)O)[C@@H](C)O)[C@@H](C)O [RPS6KA2] (H-GMKRLTSTRL-OH)
- Kd (Scrib PDZ-1 domain; [1]): > 100 µM
- Kd (Scrib PDZ-2 domain; [2]): 62.7 µM

Structure (SMILES): CSCC[C@H](NC(=O)[C@@H](N)C(C)C)C(=O)N[C@@H](CCCNC(=N)N)C(=O)N[C@@H](CC(C)C)C(=O)N[C@@H](CCC(N)=O)C(=O)N[C@@H](CO)C(=O)N[C@@H](CCC(=O)O)C(=O)N[C@H](C(=O)N[C@@H](CO)C(=O)N[C@H](C(=O)O)C(C)C)[C@@H](C)O [VANGL2] (H-VMRLQSETSV-OH)
- Kd (Scrib PDZ-1 domain; [1]): 21.6 µM
